The values that follow come from patent US4753965A, “Method of treating multiple sclerosis with chalcone derivatives” (Merrell Dow Pharmaceuticals, Inc., priority 1987, dated 1988).

SMILES strings stand for the structures. Converted amounts (≈) assume the structure as drawn.

The test system of test [1] is HeLa cells. Briefly: Growth inhibition of HeLa cells. It is filed as cell-based. The conditions noted are these: Homo sapiens, 72 hours. As for the experimental part: The compounds of structure 1 inhibit the polymerization of tubulin, and thus the formation of microtubules, that ubiquitous substance of eukaryotic cells which serves a variety of functions, most importantly, to separate the duplicated sets of chromosomes during cell mitosis.
For growth inhibition studies, exponentially growing HeLa cells
were incubated at a density of 1 × 10^5 cells/35 mm dish with
number of dilutions of the test compound in the medium. The
plates were incubated at 37° C. in a CO2 incubation. At the
of 72 hours the cells were collected by trypinization and
counted and the IC50 (.upsilon.g/ml) was determined.

The subject of test [2] is Experimental Allergic Encephalomyelitis (EAE). The test can be described thus: Experimental Allergic Encephalomyelitis (EAE) in rats. The class given is in vivo, Lewis strain rats. As for the experimental part:
Effect of α-methyl-4-dimethylamino-2',5'-dimethoxychalcone on Experimental Allergic Encephalomyelitis (EAE) in Rats
EAE was induced in rats as described by Rosenthal and Nagra, Proc. Soc.
Lewis strain rats ranging in weight
from 100-200 g were sensitized with encephalitogenic emulsion consisting
of homogenized spinal cord in complete Freund's adjuvant. The test
compound and hydrocortisone (HC) were administered in
polyvinylpyrrolidone vehicle. The test compound was administered i.p.
once daily from day 1 through day 10. HC was administered s.c. once
every other day from day 1 through day 10. The incidence of paralysis
was recorded and mean paralysis time was calculated.

Where [3] appears, read: 6.25 mg/kg i.p. once daily day 1 through day 10.
[4] abbreviates: 12.5 mg/kg i.p. once daily day 1 through day 10.
Where [5] appears, read: 25.0 mg/kg i.p. once daily day 1 through day 10.

For the compound `COc1ccc(OC)c(C(=O)C(C)=Cc2ccc(N(C)C)cc2)c1` [COMPOUND, 1-(2,5-dimethoxyphenyl)-3-[4-(dimethylamino)phenyl]-2-methyl-2-propen-1-one], it took 0.015 µg/mL (≈ 0.0461 µM) to reach half-maximal inhibition in test [1] (IC50). Moreover, in test [2] (setting [3]), the “PARALYSIS TIME (Mean ± S.E.)” value was 9.7 ± 0.36 days, the “PERCENT INCIDENCE OF PARALYSIS” value was 90% and the “number paralyzed/total number of animals” value is recorded as 9/10. In addition, in test [2] (setting [4]), the “PARALYSIS TIME (Mean ± S.E.)” value is 9.4 ± 0.26 days, the “PERCENT INCIDENCE OF PARALYSIS” value is reported as 80% and the “number paralyzed/total number of animals” value is on record as 8/10. In test [2] (setting [5]), the “PARALYSIS TIME (Mean ± S.E.)” value turned out to be 10.8 ± 0.54 days, the “PERCENT INCIDENCE OF PARALYSIS” value amounted to 40% and the “number paralyzed/total number of animals” value is 7/18.
Turning to `C[C@]12CCC(=O)C=C1CC[C@@H]1[C@@H]2[C@@H](O)C[C@@]2(C)[C@H]1CC[C@]2(O)C(=O)CO` [HYDROCORTISONE, hydrocortisone, reference compound], the “number paralyzed/total number of animals” value in test [2] (25.0 mg/kg s.c. once every other day day 1 through day 10) was 14/19.
